For 18 compounds, EBV-EA activation % of TPA control, Activity and viability results are on record in ChEMBL document CHEMBL1147306, “Studies on inhibitors of skin tumor promotion, VI. Inhibitory effects of quinones on Epstein-Barr virus activation” (J Nat Prod, 1989).

Calls of active or inactive are those of the source. The rule behind the calls is not given here. Some results are limits rather than exact numbers.

For data set [1], the system named is Raji. As to the kind of experiment: Inhibition of TPA-induced EBV-early antigen activation in human Raji cells at 500 molar ratio after 48 hrs by indirect immunofluorescence technique relative to TPA. The format is cell-based. As to conditions: human gammaherpesvirus 4.
The species entered for the next data set is Mus musculus. The experiment in a line: Displacement of [3H]TPA from TPA receptor in ICR mouse dorsal epidermis. For orientation: Displacement assays read how much labelled ligand stays bound in the presence of the test substance.
Data set [2] can be described thus: Cytotoxicity against human Raji cells assessed as cell viability at 10 molar ratio. The data set is classed as cell-based. As to conditions: read-out: Activity.
Data set [3] deals with Raji. As to the kind of experiment: Inhibition of TPA-induced EBV-early antigen activation in human Raji cells at 10 molar ratio after 48 hrs by indirect immunofluorescence technique relative to TPA. The data set is classed as cell-based. The note with it: human gammaherpesvirus 4.
Data set [4] is described as follows: Cytotoxicity against human Raji cells assessed as cell viability at 1000 molar ratio. The data set is classed as cell-based. As to conditions: read-out: Activity.
A short description of data set [5]: Cytotoxicity against human Raji cells assessed as cell viability at 500 molar ratio. The note with it: read-out: Activity. The format is cell-based.
In data set [6] the test system is Raji. As to the kind of experiment: Inhibition of TPA-induced EBV-early antigen activation in human Raji cells at 100 molar ratio after 48 hrs by indirect immunofluorescence technique relative to TPA. The format is cell-based. As to conditions: human gammaherpesvirus 4.
Data set [7] in a line: Cytotoxicity against human Raji cells assessed as cell viability at 100 molar ratio. The data set is classed as cell-based. The note with it: read-out: Activity.

As to `CC(C)=CC[C@@H](O)C1=CC(=O)c2c(O)ccc(O)c2C1=O` [SHIKONIN], the EBV-EA activation % of TPA control in the data set with Raji [1] was determined as 0%; in the data set with Raji [3], 31.5%; in the data set on Raji [6] it was 15.8%. Also, the result in the data set filed under Mus musculus was inactive. Besides, the viability at 10 molar ratio in data set [2] is above 80%. For the same compound, in data set [4], the viability at 1000 molar ratio was found to be 0%. Also, the viability at 500 molar ratio in data set [5] turned out to be 10%. Also, the viability at 100 molar ratio in data set [7] turned out to be 50%.

On to `COc1cccc2c1C(=O)c1ccc3c(c1C2=O)OCO3`, for which the EBV-EA activation % of TPA control in the data set on Raji [1] is 32.7%; with Raji [3] it was 100%; in the data set with Raji [6] it was 33%. Besides, the result in the data set listed under Mus musculus was inactive. Further, the viability at 10 molar ratio in data set [2] was above 80%. Further, in data set [4], the viability at 1000 molar ratio is above 80%. The viability at 500 molar ratio in data set [5] was above 80%. Moreover, in data set [7], the viability at 100 molar ratio was above 80%.

`Cc1ccc2c(n1)C(=O)c1c(O)ccc(O)c1C2=O`: the EBV-EA activation % of TPA control in the data set on Raji [1] was found to be 13.5%; in the data set with Raji [3] it was 86%; in the data set with Raji [6], 43.8%. Further, the outcome in the data set listed under Mus musculus was inactive. For the same compound, in data set [2], the viability at 10 molar ratio is above 80%. For the same compound, in data set [4], the viability at 1000 molar ratio was 10%. Besides, in data set [5], the viability at 500 molar ratio turned out to be 60%. The viability at 100 molar ratio in data set [7] is above 80%.

`CCCCCCCCCCCCCC(=O)O[C@@H]1[C@@H](C)[C@@]2(O)[C@@H](C=C(CO)C[C@]3(O)C(=O)C(C)=C[C@@H]23)[C@@H]2C(C)(C)[C@]12OC(C)=O`: in the data set listed under Mus musculus, the outcome was Active.

For the compound `CC(=O)c1cc2c(o1)C(=O)c1ccccc1C2=O` [NAPABUCASIN], the EBV-EA activation % of TPA control in the data set with Raji [1] was determined as 0%; in the data set on Raji [3], 32.7%; with Raji [6] it was 0%. The result in the data set filed under Mus musculus was inactive. Further, in data set [2], the viability at 10 molar ratio is above 80%. Also, the viability at 1000 molar ratio in data set [4] stood at 0%. The viability at 500 molar ratio in data set [5] was 0%. Moreover, the viability at 100 molar ratio in data set [7] was 70%.

For `O=C1c2ccccc2C(=O)c2sccc21` [THIOPHENONAPHTHOQUINONE], the EBV-EA activation % of TPA control was 0% with Raji [1], 81.4% in the data set with Raji [3] and 52.8% with Raji [6]. In data set [2], the viability at 10 molar ratio was above 80%. Further, in data set [4], the viability at 1000 molar ratio amounted to 0%. Besides, the viability at 500 molar ratio in data set [5] was found to be 0%. Also, in data set [7], the viability at 100 molar ratio was 70%.

Consider `O=C1C=CC(=O)c2c(O)cccc21` [JUGLONE], for which the EBV-EA activation % of TPA control in the data set on Raji [1] stood at 13.1%; with Raji [3] it was 100%; with Raji [6], 97.8%. The viability at 10 molar ratio in data set [2] is above 80%. Besides, the viability at 1000 molar ratio in data set [4] turned out to be 40%. In addition, the viability at 500 molar ratio in data set [5] came to 60%. For the same compound, the viability at 100 molar ratio in data set [7] is above 80%.

On to `O=C1c2ccc(O)cc2C(=O)c2ccc(O)cc21` [ANTHRAFLAVICACID], for which the EBV-EA activation % of TPA control in the data set with Raji [1] turned out to be 78.6%; in the data set on Raji [3], 100%; in the data set on Raji [6], 89.9%. Further, in data set [2], the viability at 10 molar ratio was above 80%. Further, the viability at 1000 molar ratio in data set [4] was above 80%. Besides, the viability at 500 molar ratio in data set [5] was above 80%. The viability at 100 molar ratio in data set [7] is above 80%.

For `O=C1c2ccc3c(c2C(=O)c2cccc(O)c21)OCO3`, the EBV-EA activation % of TPA control in the data set on Raji [1] was determined as 36.5%; with Raji [3], 79.5%; in the data set with Raji [6], 53.8%. The outcome in the data set listed under Mus musculus was inactive. In data set [2], the viability at 10 molar ratio was above 80%. Moreover, the viability at 1000 molar ratio in data set [4] is above 80%. Further, in data set [5], the viability at 500 molar ratio is above 80%. Also, the viability at 100 molar ratio in data set [7] is above 80%.

On to `O=C1c2ccccc2C(=O)c2cnccc21`, for which the EBV-EA activation % of TPA control was determined as 13% in the data set with Raji [1], 100% in the data set with Raji [3] and 69.5% in the data set on Raji [6]. Further, in data set [2], the viability at 10 molar ratio was above 80%. The viability at 1000 molar ratio in data set [4] stood at 10%. The viability at 500 molar ratio in data set [5] stood at 10%. Also, the viability at 100 molar ratio in data set [7] was above 80%.

Consider `O=C1C=CC(=O)c2cc(O)ccc21`, for which the EBV-EA activation % of TPA control in the data set on Raji [1] turned out to be 0%; in the data set with Raji [3], 92.3%; in the data set on Raji [6], 67.2%. Moreover, the viability at 10 molar ratio in data set [2] was above 80%. Also, the viability at 1000 molar ratio in data set [4] was 10%. For the same compound, the viability at 500 molar ratio in data set [5] was 60%. Also, in data set [7], the viability at 100 molar ratio worked out at 60%.

For the compound `Cc1ccnc2c1C(=O)c1cc(O)ccc1C2=O`, the values for the EBV-EA activation % of TPA control in the data set on Raji [1], in the data set with Raji [3] and in the data set with Raji [6] were 73.9%, 100% and 74.4%, respectively. Further, the viability at 10 molar ratio in data set [2] is above 80%. For the same compound, the viability at 1000 molar ratio in data set [4] was found to be 60%. Further, in data set [5], the viability at 500 molar ratio was 60%. Besides, in data set [7], the viability at 100 molar ratio was above 80%.

For `COCc1c(O)cc2c(c1O)C(=O)c1cccc(O)c1C2=O`, the EBV-EA activation % of TPA control in the data set on Raji [1] is 21%; in the data set with Raji [3], 100%; in the data set on Raji [6], 51.8%. Besides, the viability at 10 molar ratio in data set [2] is above 80%. Further, in data set [4], the viability at 1000 molar ratio is above 80%. Also, the viability at 500 molar ratio in data set [5] was above 80%. Also, the viability at 100 molar ratio in data set [7] was above 80%.

Regarding `O=C1c2ccccc2C(=O)c2c(O)c(O)cc(O)c21` [PURPURIN], the EBV-EA activation % of TPA control with Raji [1] was 54.3%; with Raji [3] it was 100%; in the data set with Raji [6], 100%. Moreover, in data set [2], the viability at 10 molar ratio was above 80%. In addition, in data set [4], the viability at 1000 molar ratio turned out to be 70%. Further, the viability at 500 molar ratio in data set [5] is above 80%. For the same compound, in data set [7], the viability at 100 molar ratio is above 80%.

As to `O=C1c2ccccc2C(=O)c2c(O)ccc(O)c21` [QUINIZARIN], the EBV-EA activation % of TPA control with Raji [1], with Raji [3] and with Raji [6] was 100% each time. In data set [2], the viability at 10 molar ratio is above 80%. In data set [4], the viability at 1000 molar ratio is 70%. Moreover, the viability at 500 molar ratio in data set [5] was above 80%. The viability at 100 molar ratio in data set [7] was above 80%.

Regarding `Cc1ccnc2c1C(=O)c1c(O)ccc(O)c1C2=O`, the EBV-EA activation % of TPA control in the data set with Raji [1] turned out to be 23.1%; in the data set with Raji [3], 88.6%; in the data set with Raji [6], 52.1%. In addition, the result in the data set listed under Mus musculus was inactive. For the same compound, the viability at 10 molar ratio in data set [2] was above 80%. Besides, in data set [4], the viability at 1000 molar ratio was 60%. The viability at 500 molar ratio in data set [5] worked out at 60%. In data set [7], the viability at 100 molar ratio is above 80%.

With `CC1=C(C/C=C(\C)CCC[C@H](C)CCC[C@H](C)CCCC(C)C)C(=O)c2ccccc2C1=O` [PHYTONADIONE], the EBV-EA activation % of TPA control in the data set with Raji [1], with Raji [3] and with Raji [6] was 100% throughout. For the same compound, the viability at 10 molar ratio in data set [2] was above 80%. The viability at 1000 molar ratio in data set [4] came out at 70%. Also, the viability at 500 molar ratio in data set [5] was above 80%. Also, the viability at 100 molar ratio in data set [7] was above 80%.

For the compound `CN(C)C1=CC(=O)c2cccc(O)c2C1=O`, the EBV-EA activation % of TPA control came to 53.8% in the data set with Raji [1], 100% in the data set with Raji [3] and 89.7% in the data set on Raji [6]. The viability at 10 molar ratio in data set [2] is above 80%. For the same compound, the viability at 1000 molar ratio in data set [4] was above 80%. For the same compound, the viability at 500 molar ratio in data set [5] was above 80%. The viability at 100 molar ratio in data set [7] is above 80%.
